Assay [1] concerns the target T1, recombinant human GBA1 (rhGBA1, Cerezyme) (Homo sapiens, UniProt P04062, R534H).
T1 construct: purchased Cerezyme
T1 sequence (P04062 40-536 R534H): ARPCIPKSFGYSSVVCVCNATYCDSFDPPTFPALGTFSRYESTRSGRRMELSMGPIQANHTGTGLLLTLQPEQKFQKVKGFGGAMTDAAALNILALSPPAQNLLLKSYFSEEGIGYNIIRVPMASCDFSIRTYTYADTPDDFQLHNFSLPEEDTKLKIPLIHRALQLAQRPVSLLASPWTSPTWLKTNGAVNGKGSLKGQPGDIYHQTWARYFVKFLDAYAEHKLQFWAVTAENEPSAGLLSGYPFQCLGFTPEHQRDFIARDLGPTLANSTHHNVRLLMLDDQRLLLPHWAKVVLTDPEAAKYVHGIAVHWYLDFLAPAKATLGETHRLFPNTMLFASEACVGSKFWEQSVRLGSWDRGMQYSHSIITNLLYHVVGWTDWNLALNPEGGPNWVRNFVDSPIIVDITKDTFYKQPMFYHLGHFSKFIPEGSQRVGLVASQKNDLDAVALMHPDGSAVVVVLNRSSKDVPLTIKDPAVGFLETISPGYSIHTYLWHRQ
The experiment in a line: Thermostability of rhGBA1, label-free differential scanning fluorimetry (Tycho NT.6). In kind it is binding. Particulars: rhGBA1 at 1 μM, 20 mM HEPES pH 7.0, 100 mM NaCl, 0.5% DMSO, 2 h room temperature; N. D. = not determined due to a lack of stabilisation effect.
Procedure: Samples were incubated at room temperature for 2
hours before measurement in the Tycho NT6.
Thermostability assays in rhGBA (Cerezyme)
Varying concentrations of peptides were incubated with 1 µM rhGBA1 in 20 mM HEPES pH 7.0 with 100 mM NaCl, with a final DMSO concentration of 0.5 %, for 2 hours at room temperature. Melting

The test system of assay [2] is rhGBA1 (Cerezyme) in plasma. The experiment in a line: Stabilisation of rhGBA1 in plasma, 4-MU activity. In kind it is biochemical, human. Particulars: rhGBA1 10 nM in plasma, peptides 0.001-10 μM or Ambroxol 100-1000 μM, 0-120 minutes, 0.5% DMSO. On the procedure:
We then investigated whether peptides L4, D8, and D12 could stabilise rhGBA1 in plasma. […] The solutions were then incubated with 4-MU-β-D-Glu for an additional 30 minutes, and the remaining rhGBA1 activity was determined.
Specifically, high concentrations of all peptides (10–1 μM) led to enzyme binding but also GBA1 inhibition after short incubations (0 to 30 minutes). […] To discard potential degradation of D8 and D12 during plasma experiments, the peptides were incubated in plasma at 0.1 μM for 2 hours, followed by the addition of rhGBA1 to measure its activity. This was compared to controls where D8 and D12 were added to plasma and directly tested for GBA1 activity.
Fig. 3 Stabilisation of rhGBA1 (10 nM) in plasma by cyclic peptides D8 and D12. […] Control contained 0.5% DMSO. Error ranges depict standard deviations from n = 3 replicates, measured in technical duplicates. *p < 0.05, **p < 0.01, ***p < 0.001.
Selective Cyclic Peptide Ligands as GBA1 Stabilizers Katzy et al. curves were determined in triplicate using the Tycho NT.6 (NanoTemper), according to manufacturer […]
2.9. Cerezyme Stabilization studies in plasma […]
Specific GBA1 activity was determined as described above, with 25 µL of sample incubated for 30 min with 3.7 mM 4MU-β-Glc substrate.

On to `Nc1c(Br)cc(Br)cc1CN[C@H]1CC[C@H](O)CC1` [Ambroxol, reference compound], for which the “ΔTi,max” value in assay [1] turned out to be 12.3 ± 5.4 °C. The “stabilisation of rhGBA1 against degradation in plasma” value in assay [2] is given as “no stabilisation effect”.

Source of the values: PMC11808397, “Development of selective nanomolar cyclic peptide ligands as GBA1 enzyme stabilisers” (RSC Chemical Biology, 2025).
